Consider ten compounds from ChEMBL document CHEMBL4482302, “Inhibitors of rac1 and uses thereof for inducing bronchodilatation” (2018).

Active and inactive are the calls of the source. The rule behind the calls is not given here.

Assay [1] concerns the target Ras-related C3 botulinum toxin substrate 1 (Mus musculus, UniProt P63001). As to the kind of experiment: Inhibition of Rac1 activation in mouse NIH/3T3 cells lysates pre-incubated for 1 hr before addition of Rac activator stimulation by immunoblot analysis based pull-down assay relative to control. In kind it is subcellular, Lysate.
In assay [2] the target is Ras-related C3 botulinum toxin substrate 1 (Mus musculus) (UniProt P63001). As to the kind of experiment: Inhibition of Rac1 activation in mouse NIH/3T3 cells lysates pre-incubated for 1 hr before addition of Rac activator stimulation by immunoblot analysis based pull-down assay. In kind it is subcellular. Conditions: Lysate.
Assay [3] has the same target. As to the kind of experiment: Inhibition of Rac1 in mouse NIH/3T3 cells assessed as reduction in Rac activator-stimulated cell migration incubated for 24 hrs. In kind it is cell-based.
The target is the same in assay [4]. As to the kind of experiment: Inhibition of Rac1 in mouse NIH/3T3 cells assessed as reduction in Rac activator-stimulated membrane ruffling. In kind it is cell-based.
Assay [5] shares this target. As to the kind of experiment: Inhibition of Rac1 in mouse NIH/3T3 cells assessed as reduction in Rac activator-stimulated cell adhesion measured every 5 mins for 6 hrs by xCELLigence assay. In kind it is cell-based.
The target in assay [6] is Ras-related C3 botulinum toxin substrate 2 (Mus musculus) (UniProt Q05144). As to the kind of experiment: Inhibition of mouse Rac2 assessed as decrease in B-max for GTP-binding on Rac1 by mant-GTP binding kinetics real-time assay.
For assay [7], the target named is Rho-related GTP-binding protein RhoG (Mus musculus) (UniProt P84096). As to the kind of experiment: Inhibition of mouse RhoG assessed as decrease in B-max for GTP-binding on Rac1 by mant-GTP binding kinetics real-time assay.
Assay [8] has as its target Transforming protein RhoA (Mus musculus) (UniProt Q9QUI0). As to the kind of experiment: Binding affinity to mouse RhoA by SPR assay.
The target of assay [9] is ADP-ribosylation factor 6 (Mus musculus) (UniProt P62331). As to the kind of experiment: Inhibition of mouse Arf6 assessed as decrease in B-max for GTP-binding on Rac1 by mant-GTP binding kinetics real-time assay.
Assay [10] has as its target Ras-related C3 botulinum toxin substrate 1 (Mus musculus) (UniProt P63001). As to the kind of experiment: Binding affinity to mouse Rac1 by SPR assay.
Assay [11] has as its target Transforming protein RhoA (Mus musculus) (UniProt Q9QUI0). As to the kind of experiment: Inhibition of mouse RhoA assessed as decrease in B-max for GTP-binding on Rac1 by mant-GTP binding kinetics real-time assay.
In assay [12] the target is Ras-related C3 botulinum toxin substrate 1 (Mus musculus) (UniProt P63001). As to the kind of experiment: Inhibition of Rac1 in mouse airways smooth muscle cells assessed as reduction in methacholine-induced maximal contraction pre-incubated for 1 hrs before methacholine addition.
The target is the same in assay [13]. As to the kind of experiment: Inhibition of mouse Rac1 assessed as decrease in B-max for GTP-binding on Rac1 by mant-GTP binding kinetics real-time assay.
For assay [14] the target is unchanged. As to the kind of experiment: Binding affinity to mouse Rac1 in presence of EDTA by SPR assay.
Assay [15] deals with Cell division control protein 42 homolog (Mus musculus) (UniProt P60766). As to the kind of experiment: Binding affinity to mouse Cdc42 by SPR assay.
For assay [16], the target named is Ras-related protein Rab-35 (Mus musculus) (UniProt Q6PHN9). As to the kind of experiment: Inhibition of mouse Rab35 assessed as decrease in B-max for GTP-binding on Rac1 by mant-GTP binding kinetics real-time assay.
For assay [17], the system named is Mus musculus. As to the kind of experiment: Suppression of airway hyperresponsiveness in mouse model of percutaneous sensitization and house dust mite extract intranasal challenge-induced human allergic asthma dosed via nebulization 10 mins before methacholine challenge. In kind it is functional, organism-based.

Transforming protein RhoA (Mus musculus), sequence (Q9QUI0 whole entry): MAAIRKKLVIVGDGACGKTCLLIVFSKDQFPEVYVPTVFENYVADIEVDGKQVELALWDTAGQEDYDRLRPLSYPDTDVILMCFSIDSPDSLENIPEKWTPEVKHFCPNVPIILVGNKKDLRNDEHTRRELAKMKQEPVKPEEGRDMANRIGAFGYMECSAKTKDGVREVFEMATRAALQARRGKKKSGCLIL
Cell division control protein 42 homolog (Mus musculus), sequence (P60766 whole entry, looked up): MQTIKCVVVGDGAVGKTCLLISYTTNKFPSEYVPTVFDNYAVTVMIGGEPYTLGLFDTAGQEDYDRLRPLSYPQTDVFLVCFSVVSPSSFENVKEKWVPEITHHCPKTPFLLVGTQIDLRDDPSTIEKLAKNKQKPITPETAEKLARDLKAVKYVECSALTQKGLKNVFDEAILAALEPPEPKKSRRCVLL
Ras-related protein Rab-35 (Mus musculus), sequence (Q6PHN9 whole entry): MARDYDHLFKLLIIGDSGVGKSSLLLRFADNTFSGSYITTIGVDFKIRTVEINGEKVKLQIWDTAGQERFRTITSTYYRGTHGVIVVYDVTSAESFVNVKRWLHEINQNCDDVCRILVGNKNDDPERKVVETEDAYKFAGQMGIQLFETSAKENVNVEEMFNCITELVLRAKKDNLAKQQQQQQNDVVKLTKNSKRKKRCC
Rho-related GTP-binding protein RhoG (Mus musculus), sequence (P84096 whole entry): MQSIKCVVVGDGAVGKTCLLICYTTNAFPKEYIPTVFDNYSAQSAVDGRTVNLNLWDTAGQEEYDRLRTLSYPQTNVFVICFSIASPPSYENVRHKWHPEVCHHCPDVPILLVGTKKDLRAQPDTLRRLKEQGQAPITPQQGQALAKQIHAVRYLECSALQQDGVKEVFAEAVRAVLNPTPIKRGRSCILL
ADP-ribosylation factor 6 (Mus musculus), sequence (P62331 whole entry): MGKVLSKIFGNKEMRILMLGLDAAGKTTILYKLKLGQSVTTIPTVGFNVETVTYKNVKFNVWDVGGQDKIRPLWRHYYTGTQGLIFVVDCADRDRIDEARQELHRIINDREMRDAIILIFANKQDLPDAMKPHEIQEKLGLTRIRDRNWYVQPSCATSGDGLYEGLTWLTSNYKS

Regarding `COc1cccc(NS(=O)(=O)c2ccc(N)cc2)c1`, inhibition in assay [1] was half-maximal at 1 nM (IC50).

In the case of `COc1ccccc1NS(=O)(=O)c1ccc(N)cc1`, the IC50 in [1] came to 1 nM.

For the compound `CCN(CC)CCCC(C)Nc1nc(C)cc(Nc2ccc3nc(C)cc(N)c3c2)n1` (centres undefined), the inhibition result in assay [2], in assay [3] and in assay [5] was “Active” in each case. In addition, the inhibition result in [4] was “Dose-dependent effect”.

The compound `C=CC(=O)Nc1ccc(S(=O)(=O)Nc2cc(OC)ccc2OC)cc1` had a half-inhibitory concentration (IC50) in [1] of 0.1 nM.

In the case of `COc1ccccc1NS(=O)(=O)c1ccc(NC(=O)CCSc2ccc(C)cc2)cc1`, half-maximal inhibition in [1] (IC50) required 1 nM.

For the compound `COc1ccc(OC)c(NS(=O)(=O)c2ccc(NC(=O)CCOc3ccc(C)cc3)cc2)c1`, the IC50 in [1] came to 1 nM.

In turn, `COc1ccccc1NS(=O)(=O)c1ccc(NC(=O)CSc2ccc(C)cc2)cc1` displayed a concentration for half-maximal inhibition (IC50) in [1] of 1 nM.

As to `COc1ccc(OC)c(NS(=O)(=O)c2ccc(NC(=O)CCSc3ccc(C)cc3)cc2)c1`, the inhibition result in [2], in assay [6], in [3], in assay [5], in [12] and in assay [13] was “Active” in each case. Besides, the inhibition entry in [7], in [9], in [11] and in assay [16] was “inactive” each time. Moreover, the inhibition entry in [4] was “Dose-dependent effect”. The outcome in [8] and in [15] was inactive. Moreover, the IC50 in assay [1] was 1 nM. Also, the outcome in assay [10], in assay [14] and in assay [17] was Active.

Compound `COc1ccc(NS(=O)(=O)c2ccc(NC(=O)CCSc3ccc(C)cc3)cc2)c(OC)c1` gave a concentration for half-maximal inhibition (IC50) in [1] of 30 nM.

For `COc1ccccc1NS(=O)(=O)c1ccc([N+](=O)[O-])cc1`, the midpoint of inhibition in assay [1], the IC50, lay at 1 nM.
